The source of these data is paper PMC8000760, “Potential Effect of Pseudevernia furfuracea (L.) Zopf Extract and Metabolite Physodic Acid on Tumour Microenvironment Modulation in MCF-10A Cells” (Biomolecules, 2021).

In one assay the test system is MCF-10A. The assay can be described thus: MTS cell viability assay. The class given is cell-based, human. As to conditions: 72 h. The protocol: (§1) Briefly, MCF-10A and BJ-5ta were seeded in 96-well culture plates, and after 24 h incubation, treated with various ranges of concentrations of tested compounds (10–100 μg/mL) for 72 h. At the same time, HUVECs were seeded in a gelatine-coated 96-well plate and treated with the same aliquots of indicated compounds in the presence or absence of VEGF (Vascular endothelial growth factor) (25 ng/mL) for 48 h. Cell viability was evaluated by measuring the absorbance at 490 nm using the automated CytationTM 3 Cell Imaging Multi-Mode Reader (Biotek, Winooski, VT, USA). Three independent experiments were performed at different intervals.

Another assay relates to HUVECs. Put plainly: MTS cell viability assay. The class given is cell-based, human. The note with it: 48 h. As to the method:
as §1
(Formazan colour is commonly taken as a measure of viable cells.)

The test system of assay [1] is chorioallantoic membrane (CAM) of fertilised quail eggs. Put plainly: Ex ovo chorioallantoic membrane (CAM) assay. Format: in vivo, Coturnix coturnix japonica. The protocol:
Fertilised quail eggs (Coturnix coturnix japonica; 20 specimens) were obtained from the certified farm (Mala Ida, Slovakia) and incubated horizontally in a forced draft constant humidity incubator at 38.2 ± 0.5 °C and 58% relative humidity. After 56 h, the eggs were sterilised by wiping the surface lightly with 70% ethanol and allowed to dry. An incision was made in the middle ventral part of the shell, using sterile scissors, and the embryos were deposited in six-well tissue culture dishes (Sigma-Aldrich), which were then returned to the humidified incubator for an additional 4 days, until the start of the experiments. At day 7 (96 h after day 3), a sterilised silicone ring (10 mm inner diameter) was laid on CAM surface for the deposition of testing solution. […] At least 10 eggs were used in every experimental group. The photographs of CAM blood vessels’ formation inside of rings were obtained using a stereomicroscope Olympus SZ61 (Tokyo, Japan) and digital camera PROMICRA 3.2 (Prague, Czech Republic). Subsequently, photographs were pre-processed using QuickPHOTO MICRO microscope software (Promicra; Prague, Czech Republic). Representative images were then analysed using Wimasis Image Analysis automatic software to quantify the angiogenesis.

The subject of a further assay is BJ-5ta. The assay can be described thus: BrdU cell proliferation assay. Format: cell-based. As to conditions: 72 h. The protocol:
The MCF-10A (5 × 10^3/well), BJ-5ta (5 × 10^3/well) and HUVEC cells (4 × 10^3/well) were plated in a 96-well plate in 80 μL suitable medium. HUVECs were seeded onto a gelatine-coated plate. After 24 h, cells were treated with the range of concentration 10–100 μg/mL for 72 h (MCF-10A, BJ-5ta), or in the presence or absence of 25 ng/mL of VEGF for 48 h (HUVECs). After 48 h (MCF-10A, BJ-5ta) or 24 h (HUVECs), BrdU labelling solution was added into cells and incubated for another 24 h at 37 °C, followed by fixation and incubation with anti-BrdU peroxidase conjugate solution for an additional 1.5 h at room temperature (RT). Then, cells were washed with washing buffer PBS and incubated with substrate solution TMB for 5 to 30 min according to colour intensity. Finally, we added stop solution (1 M H2SO4) and incorporated BrdU was detected with an automated CytationTM 3 Cell Imaging Multi-Mode Reader at 450 nm (reference wavelength: 690 nm). Three independent experiments were performed at different intervals.

In assay [2] the test system is N-cadherin in TGF-β-stimulated MCF-10A cells. The assay can be described thus: N-cadherin expression, immunofluorescence staining. The class given is cell-based, human. The note with it: IC10, 72 h, compared to TGF-β alone. As to the method:
The MCF-10A and BJ-5ta cells were seeded and cultivated for 24 h in a complete medium. One day after seeding, 30 ng/mL of TGF-β was added and cultivated for 7 days (d). TGF-β was added to induce epithelial–mesenchymal transition in tested cell lines. Lichen extract P. furfuracea (L.) Zopf and its metabolite physodic acid were added at time 0 h and then incubated for 24, 48 and 72 h for various analyses, as described in Figure 1.
The MCF-10A cells at a density of 2 × 10^3/cm^2, plated on 22 mm^2 glass coverslips, were stimulated for 7 days with 30 ng/mL of TGF-β. […] After treatment, cells were washed with PBS, fixed with 4% paraformaldehyde (pH 7.2) for 10 min, permeabilised by 0.1% Triton X-100 (Sigma-Aldrich) for 10 min at RT and then washed three) times with PBS for 5 min. Glass coverslips were then incubated with Swine serum (1:30) for 30 min for blocking non-specific binding. Primary antibodies were diluted according to the manufacturer’s instructions (Table 2) and transferred to coverslips for 90 min. […] All coverslips were mounted in Vectashield (Cole-Parmer, Illinois, USA) and immunofluorescence pictures were taken with the same exposition settings by the Nikon Eclipse 90i fluorescence microscope (Nikon, Tokyo, Japan) equipped with filter cubes for FITC and DAPI. Images were then analysed using ImageJ (NIH) software.

Where [3] appears, read: VEGF-stimulated (25 ng/mL), IC10, 72 h, compared to VEGF alone.

Regarding `CCCCCC(=O)Cc1cc(O)cc2c1C(=O)Oc1cc(O)c(C(=O)O)c(CCCCC)c1O2` [Phy, physodic acid], the 10% effect concentration (IC10) in the assay on MCF-10A amounted to 59.25 ± 1.36 µM; in the assay with HUVECs (HUVECs), 60.62 ± 3.30 µM; in the assay with BJ-5ta, 62.88 ± 0.90 µM. Moreover, the IC50 with MCF-10A (Homo sapiens) came out at 79.9 ± 0.93 µM; in the assay on HUVECs (Homo sapiens, HUVEC, HUVECs), 92.8 ± 3.62 µM; in the assay with BJ-5ta, 164 ± 4.5 µM. In addition, the VEGF-induced cell growth entry in the assay with HUVECs (HUVECs with VEGF 25 ng/mL) is “significantly inhibited”. In addition, the “cell growth of non-stimulated HUVECs” value in the assay with HUVECs (HUVECs without VEGF) is recorded as “no significant differences”. In addition, the total branching points result was “significant decrease” in assay [1] (setting [3]) and “not significantly affected” in assay [1] (absence of VEGF). Also, in assay [1] (setting [3]), the “total vascular network length” value is reported as “significant decrease”. Besides, the vascular density result in assay [1] (setting [3]) is listed as “significant decrease”. The vessel density result in assay [1] (non-stimulated group (absence of VEGF)) is given as “significant change”. Moreover, in assay [2], the “N-cadherin expression, immunofluorescence” value is reported as “significant decrease”.

The term IC10 denotes the point of the concentration-response curve where the effect stands at 10%. Read a low IC10 as an effect from little substance. In general, IC50 refers to the concentration at which inhibition is half-maximal. A higher IC50 goes with lower potency.
